Tested on: HIV-IIIb
Experiment: Test A: Antiviral Assays in MT4 Cells
Assay type: cell-based
Settings: Human immunodeficiency virus 1, IIIB, MT4, 120 h, MT-4 cells infected with HIV-IIIb (0.004 m.o.i.), 5 days of incubation, CellTiter-Glo chemiluminescence readout; read-out: EC50
Outline: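 MT-4 cells pre-infected with HIV-IIIb (0.004 m.o.i.) at 37 °C, then plated with 3-fold serially diluted compound (10 concentrations, quadruplicate, RPMI 1640/10% FBS). After 5 days at 37 °C, cell viability read by CellTiter-Glo chemiluminescence; mock-infected cells run in parallel.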

Row | SMILES | EC50 [µM]
1 | Cc1c([C@@H](OC(C)(C)C)C(=O)O)c(-c2ccc(Cl)cc2)c2ccccc2c1Br [Compound 150A, (R)-2-(4-Bromo-1-(4-chlorophenyl)-3-methylnaphthalen-2-yl)-2-tert-butoxyacetic acid] | 29.2
2 | COc1ccc2c(-c3ccc(Cl)cc3)c(C(OC(C)(C)C)C(=O)O)c(C)cc2c1 (centres unmarked) [Compound 48, 2-tert-Butoxy-2-(1-(4-chlorophenyl)-6-methoxy-3-methylnaphthalen-2-yl)acetic acid] | 0.21
